Values quoted from earlier work as cited in patent publication US12599131B2, “Disinfectant composition” (KAO CORPORATION, priority 2020, dated 2026).

Conditions: 0.1 mol/L in water, Handbook of Chemistry or Chemicalize

Row | SMILES | pKa (25° C.)
1 | CCCCCCCCC(CCCCCC)C(=O)O (stereo not drawn) [2-hexyldecanoic acid] | 5.12
2 | CCCCCCCCC(CCCCCCCC)C(=O)O [2-octyldecanoic acid] | 4.98
3 | O=C(O)CCCCC(=O)O [adipic acid] | 4.3
4 | CCCCCCCCCC(=O)O [capric acid] | 4.95
5 | CCCCCC(=O)O [caproic acid] | 4.6
6 | O=CO [formic acid] | 3.54
